Assay results: PubChem BioAssay (NCI)
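Tested at 5 concentrations; 48 h exposure; 96-well plates; endpoints linearly interpolated, else capped at highest concentration. GI50: concentration for 50% inhibition of growth. TGI denotes the concentration required for complete inhibition of growth.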

Tests used:
Assay in all cases: inhibition of tumour cell growth, NCI panel, 48 h
NCI-H23 lung = system: NCI-H23 lung
SNB-75 CNS = system: SNB-75 CNS
K-562 leukemia = system: K-562 leukemia
SK-MEL-5 melanoma = system: SK-MEL-5 melanoma
RPMI-8226 leukemia = system: RPMI-8226 leukemia
EKVX NSCLC = system: EKVX NSCLC
TK-10 renal = system: TK-10 renal
SF-295 CNS = system: SF-295 CNS
HOP-62 NSCLC = system: HOP-62 NSCLC
MOLT-4 leukemia = system: MOLT-4 leukemia

Structure (SMILES) | TGI (NCI-H23 lung) [µM] | TGI (SNB-75 CNS) [µM] | TGI (K-562 leukemia) [µM] | TGI (SK-MEL-5 melanoma) [µM] | TGI (RPMI-8226 leukemia) [µM] | TGI (EKVX NSCLC) [µM] | TGI (TK-10 renal) [µM] | TGI (SF-295 CNS) [µM] | TGI (HOP-62 NSCLC) [µM] | TGI (MOLT-4 leukemia) [µM] | GI50 (K-562 leukemia) [µM] | GI50 (RPMI-8226 leukemia) [µM]
Clc1cc2ncn(C3CCCO3)c2cc1Cl (configuration not stated) | > 100 | > 100 | > 100 | > 100 | > 100 | > 100 | > 100 | > 100 | > 100 | > 100 | – | –
CNc1nc(OC)c2c(n1)[n+](C)cn2C | > 100 | > 100 | > 100 | > 100 | > 100 | > 100 | > 100 | > 100 | > 100 | > 100 | – | –
CC1=C(C(=O)OC(C)(C)C)C(c2ccc([N+](=O)[O-])cc2)C(C(=O)OC(C)(C)C)=C(C)N1 | 45.3 | 61.2 | 54 | 32.9 | 54 | 38.4 | 38.1 | 46.2 | 40.8 | 41.6 | – | –
COc1ccc(NC(=S)Nc2cccc(C)n2)cc1 | > 100 | > 100 | > 100 | > 100 | > 100 | > 100 | > 100 | > 100 | 64.3 | > 100 | – | –
COC(=O)C1CCC(=S)N1C(C)=O (configuration not stated) | > 100 | > 100 | > 100 | > 100 | > 100 | > 100 | > 100 | > 100 | > 100 | > 100 | – | –
NNC(=O)COc1nc(-c2cccs2)nc2ccc(I)cc12 | 41.2 | 59 | > 100 | 45 | 39.4 | 71 | 44.8 | 86.2 | 75.6 | > 100 | 37 | 16
Nc1c(/C=C/c2cc3cc(C4=NCCN4)ccc3o2)[nH]c2cc(C3=NCCN3)ccc12 | > 100 | > 100 | > 100 | > 100 | > 100 | > 100 | 67 | > 100 | 96 | > 100 | – | –
CN1Cc2c(ccc3c2OCO3)[C@@H]2[C@H](O)Cc3cc4c(cc3[C@@H]21)OCO4 | 12.8 | 7.64 | > 100 | 40 | > 37.4 | > 100 | > 100 | 21.6 | 28.1 | > 57.1 | – | –
CCCCC(C)(C/C=C/[C@@H]1[C@@H](C(O)CCCCCC(=O)OC)C(=O)C[C@H]1O[Si](C)(C)C(C)(C)C)O[Si](C)(C)C (some centres not stated) | > 100 | > 100 | > 100 | > 100 | > 100 | > 100 | > 100 | > 100 | > 100 | 59.4 | – | –
CC(C)=C[C@@H]1C[C@H](C)[C@H]2CC[C@H](C)[C@H]3C(=O)C(O)=C(C)C(=O)[C@]123 | > 100 | > 100 | > 100 | > 100 | > 100 | > 100 | > 100 | > 100 | > 100 | > 100 | – | –
N#Cc1c2c(c(Nc3ccc(Cl)cc3)n3c1nc1ccccc13)CCCC2 | > 100 | > 100 | > 100 | > 100 | 36.1 | > 100 | > 100 | > 100 | > 100 | > 100 | – | –
N/N=C(\N)SCc1ccc(N=C=S)cc1 | > 100 | > 100 | > 100 | > 100 | > 100 | > 100 | > 100 | > 100 | > 100 | > 100 | – | –
C/C(=C\CNc1ncnc2c1ncn2CCC#N)CO | > 100 | > 100 | > 100 | > 100 | > 100 | > 100 | > 100 | > 100 | > 100 | > 100 | – | –
CC1SCCc2nc3ccccc3n21 (configuration not stated) | > 100 | > 100 | > 100 | > 100 | > 100 | > 100 | > 100 | > 100 | > 100 | > 100 | – | –
CCOC(=O)c1c(SCCN(CC)CC)n(-c2ccccc2)c(=S)n(-c2ccccc2)c1=O | 44.6 | 23.4 | 4.32 | 7.6 | 3.87 | 24.8 | 3.39 | > 100 | 32.6 | 3.33 | – | –
